System: mouse mastocytoma cells
Type: cell-based

CC(=O)N[C@@H](CSC(=O)[C@]1([C@@H](O)C(C)C)NC(=O)[C@H](C)[C@@H]1O)C(=O)O [lactacystin]
lysis of the target cells by CTLs: significantly decreased lysis
